Results published in patent publication US20090192192A1, “INHIBITORS OF BIOFILM FORMATION OF GRAM-POSITIVE AND GRAM-NEGATIVE BACTERIA” (priority 2007, published 2009).

Test system: Pseudomonas aeruginosa PAO1
Experiment: MBEC assay, biofilm formation of P. aeruginosa PAO1
Type: cell-based
Conditions: compound concentration 100 μM, class symbols
Description: The compound to be tested was dissolved in DMSO to obtain a concentration that was 100 times that of the final concentration required (1 mM for the 10 μM assay and 10 mM for the 100 μM assay). 1.5 μL of the above solution was placed into each well of a 96 well plate (final volume in each well=150 μL, final DMSO concentration of 1% (v/v)).
To grow the organism and form a biofilm, a cryogenic stock of the test organism (at −70° C.) was used. A first sub-culture was streaked out onto TSA (tryptic soy agar), upon which the plate was incubated at 35±2° C. for 24 hours and stored wrapped in parafilm at 4° C. afterwards. From this first sub-culture, a second sub-culture was streaked out onto TSA. The plate was incubated at 35±2° C. for 24 hours. The second sub-culture was used within 24 hours starting from the time it was first removed from incubation. Using the second sub-culture an inoculum in 3 mL sterile water that matches a 0.5 McFarland Standard (1.5×10^8 cells per mL) was created in a glass test tube using a sterile cotton swab. 2.2 mL of this solution was diluted in 22 mL 100% TSB (tryptic soy broth) medium to a cell density of approximately […]. The diluted organism was inverted 3-5 times to achieve uniform mixing of the organism. One sample (100 μl) of the diluted organism was used for an inoculum check by serially diluting and spot plating on TSA.
To prepare a challenge plate, […] of the diluted organism was added to each well of a 96 well plate except the sterility control wells. The test compounds were added to the wells to make up final concentrations of 10 μM and […] (1.5 μL/well) in the designated location in the test plate. 128.5 μL of 100% universal neutralizer (1% Tween 80 in Cation Adjusted Mueller Hinton Broth, CAMHB) was placed in each of the wells. 130 μL of media was added to the growth control wells. 128.5 μL of media+1.5 μL of DMSO were added to a second set of growth control wells. 150 μL of media was added to the sterility controls. Each sample was run in triplicate. The plate was covered by a lid with a peg per well and wrapped in parafilm and placed on a shaker in a humidified incubator (GeneVac) at 35±+2° C. for 24 hours set at 110 rpm.
Rinse plate(s) of 0.9% saline (200 μL per well) were prepared in a sterile 96 well microtitre plate. Lid-associated pegs were rinsed in 0.9% saline for approximately 1-2 minutes. The peg lid was transferred to the recovery media (1.0% Tween 80 in CAMHB) then sonicated for 30 minutes to dislodge surviving biofilm. Following sonication, 100 μL from each well of the 96 well plate was placed into the first 12 wells of the first row of a 96 well microtiter plate. 180 μl of 0.9% sterile saline was placed in the remaining rows. A serial dilution (10^0-10^7) was prepared by moving 20 μl down each of the 8 rows. 20 μl from each well was removed and spot plated on a prepared TSA. In the remaining recovery plate, 100 μl of fresh growth media (1.0% Tween 80 in CAMHB) was placed in each well to replace the amount removed. The recovery plate was covered with a regular lid and incubated at 35±2° C. for 24 hours and read visually to confirm antimicrobial activity of the test compounds.
The compounds of the present disclosure have been tested regarding their efficiency to inhibit biofilm formation of Staphylococcus aureus U of C#18 (MRSA), Staphylococcus aureus 456 (MRSA), Staphylococcus epidermidis RP62A, and Pseudomonas aeruginosa PAO1.

First: CCCCNC(=O)Nc1cc(C(C)(C)C)nn1C [Example 40, 1-butyl-3-(3-tert-butyl-1-methylpyrazol-5-yl)urea]
Second: CCCCCCNC(=O)Nc1cc(C(C)(C)C)nn1C [Example 43, 1-(3-tert-butyl-1-methylpyrazol-5-yl)-3-hexylurea]
The inhibition at 100 µM of the first is lower: < 20% for the first, 20 to 50% for the second.

Compared with `CCCCOCCOCC(=O)N(C)c1ccc(F)cc1` [Example 119, 2-(2-butoxyethoxy)-N-(4-fluorophenyl)-N-methylacetamide], `CCCCCCCCCCCC(=O)N(C)c1ccc(F)cc1` [Example 20, N-(4-fluorophenyl)-N-methyldodecanamide] is higher in inhibition at 100 µM: < 20% for the first, > 50% for the second.

`CCCCCCCCCC(=O)NC(=O)Nc1cc(C)nn1C` [Example 100, N-(1,3-dimethylpyrazol-5-ylcarbamoyl)decanamide] and `CCCCCCCCCC(=O)NC(=O)Nc1ccnn1C` [Example 99, N-(1-methylpyrazol-5-ylcarbamoyl)decanamide] fall in the same range of inhibition at 100 µM: 20 to 50% for the first, 20 to 50% for the second.

`CCCCCCCCCCNC(=O)Nc1ccnn1C` [Example 61, 1-decyl-3-(1-methylpyrazol-5-yl)urea] and `CCCCCCCCCCNC(=O)Nc1ccnn1CC` [Example 64, 1-decyl-3-(1-ethylpyrazol-5-yl)urea] fall in the same range of inhibition at 100 µM: 20 to 50% for the first, 20 to 50% for the second.

First: CCCCCCCCOCCC(=O)Nc1cc(-c2ccccc2)nn1C [Example 117, N-(1-methyl-3-phenylpyrazol-5-yl)-3-(octyloxy)propanamide]
Second: CCCCOCCOCC(=O)Nc1cc(-c2ccccc2)nn1C [Example 124, 2-(2-butoxyethoxy)-N-(1-methyl-3-phenylpyrazol-5-yl)acetamide]
The inhibition at 100 µM of the first is higher: > 50% for the first, 20 to 50% for the second.

`CCCCCCCCCCCC(=O)N1CCC(C(=O)Nc2cc(C)nn2C)C1` (stereo not drawn) [Example 153, N-(1,3-dimethylpyrazol-5-yl)-1-dodecanoylpyrrolidine-3-carboxamide] and `CCCCCCCCCCCC(=O)N1CCC(C(=O)N(C)C)C1` (stereo not drawn) [Example 147, 1-dodecanoyl-N,N-dimethylpyrrolidine-3-carboxamide] cannot be ordered by inhibition at 100 µM: > 50% for the first, > 50% for the second.

`CCCCCCCCOCCC(=O)Nc1cc(C2CC2)nn1C` [Example 115, N-(3-cyclopropyl-1-methylpyrazol-5-yl)-3-(octyloxy)propanamide] and `CCCCCCCCCOCC(=O)Nc1cc(C2CC2)nn1C` [Example 106, N-(3-cyclopropyl-1-methylpyrazol-5-yl)-2-(nonyloxy)acetamide] cannot be ordered by inhibition at 100 µM: > 50% for the first, > 50% for the second.

`CCCCCCCCCC(=O)N[C@H]1CCOC1=O` [Example 32, N-decanoyl-L-homoserinelactone] and `CCCCCCCCOCCC(=O)N[C@H]1CCOC1=O` [Example 112, N-(3-octyloxypropanoyl)-L-homoserinelactone] cannot be ordered by inhibition at 100 µM: < 20% for the first, < 20% for the second.

`CCCCCCCCCOCC(=O)Nc1cc(C(C)(C)C)on1` [Example 109, N-(5-tert-butylisoxazol-3-yl)-2-(nonyloxy)acetamide] and `CCCCCCCCCCNC(=O)Nc1cc(C(C)(C)C)n[nH]1` [Example 68, 1-(3-tert-butylpyrazol-5-yl)-3-decylurea] fall in the same range of inhibition at 100 µM: 20 to 50% for the first, 20 to 50% for the second.

Compared with `CCCCCCCCOCCC(=O)N1CCCC(C(=O)N(CC)CC)C1` (stereo not drawn) [Example 137, N,N-diethyl-1-(3-(octyloxy)propanoyl)piperidine-3-carboxamide], `CCCCCCCN(C)CCCC(=O)N1CCCC(C(=O)N(CC)CC)C1` (stereo not drawn) [Example 138, N,N-diethyl-1-(4-(heptyl(methyl)amino)butanoyl)piperidine-3-carboxamide] is lower in inhibition at 100 µM: 20 to 50% for the first, < 20% for the second.

Going from `CCCCCCCCCCCCNC(=O)Nc1cc(-c2ccccc2)nn1C` [Example 86, 1-dodecyl-3-(1-methyl-3-phenylpyrazol-5-yl)urea] to `CCCCCCCCCCCNC(=O)Nc1cc(C(C)(C)C)nn1C` [Example 81, 1-(3-tert-butyl-1-methylpyrazol-5-yl)-3-undecylurea], the inhibition at 100 µM rises from < 20% to > 50%.

Compared with `CCCCCCCCCCCC(=O)N1CCCC(C(=O)NCC(C)C)C1` (stereo not drawn) [Example 134, 1-dodecanoyl-N-isobutylpiperidine-3-carboxamide], `CCCCCCCCCCCC(=O)N1CCC(C(N)=O)C1` (stereo not drawn) [Example 145, 1-dodecanoylpyrrolidine-3-carboxamide] is higher in inhibition at 100 µM: 20 to 50% for the first, > 50% for the second.

First: CCCCCCCCCCCC(=O)N[C@@H](C)c1ccccc1 [Example 28, (S)-N-(1-phenylethyl)dodecanamide]
Second: CCCCCCCCCC(=O)NC(=O)N[C@H](C)c1ccccc1 [Example 98, (R)-N-(1-phenylethylcarbamoyl)decanamide]
The inhibition at 100 µM of the first is lower: 20 to 50% for the first, > 50% for the second.

First: CCCCCCCCCC(=O)NCc1ccco1 [Example 29, N-(furan-2-ylmethyl)decanamide]
Second: CCCCCCCCCCCC(=O)Nc1ccccc1F [Example 15, N-(2-fluorophenyl)dodecanamide]
The inhibition at 100 µM of the first is higher: 20 to 50% for the first, < 20% for the second.

First: CCCCCCCCCOCC(=O)N[C@H]1CCOC1=O [Example 111, N-(2-nonyloxyacetyl)-L-homoserinelactone]
Second: CCCCCCCCCCNC(=O)Nc1nnc(C2CC2)s1 [Example 75, 1-(5-cyclopropyl-1,3,4-thiadiazol-2-yl)-3-decylurea]
The inhibition at 100 µM of the first is lower: < 20% for the first, 20 to 50% for the second.

First: CCCCCCCCCCCC(=O)Nc1ccccc1S(=O)(=O)O [Example 27, 2-dodecanamidobenzenesulfonic acid]
Second: CCCCCCCCCCCC(=O)Nc1ccc(F)cc1F [Example 21, N-(2,4-difluorophenyl)dodecanamide]
The inhibition at 100 µM of the first is higher: 20 to 50% for the first, < 20% for the second.

`CCCCOCCOCC(=O)Nc1cc(C)nn1C` [Example 122, 2-(2-butoxyethoxy)-N-(1,3-dimethylpyrazol-5-yl)acetamide] and `COCCOCCOCC(=O)Nc1cc(C)ns1` [Example 129, 2-(2-(2-methoxyethoxy)ethoxy)-N-(3-methylisothiazol-5-yl)acetamide] cannot be ordered by inhibition at 100 µM: < 20% for the first, < 20% for the second.

`COCCOCCOCC(=O)N[C@@H](C)c1ccccc1` [Example 127, (S)-2-(2-(2-methoxyethoxy)ethoxy)-N-(1-phenylethyl)acetamide] and `CCCCCCCCCOCC(=O)Nc1nnc(-c2ccccc2)s1` [Example 110, 2-(nonyloxy)-N-(5-phenyl-1,3,4-thiadiazol-2-yl)acetamide] cannot be ordered by inhibition at 100 µM: < 20% for the first, < 20% for the second.

Compared with `CCCCCCCCCCNC(=O)Nc1ccc(F)cc1F` [Example 55, 1-decyl-3-(2,4-difluorophenyl)urea], `CCCCCCCCCCNC(=O)Nc1ccccc1C(F)(F)F` [Example 57, 1-decyl-3-(2-(trifluoromethyl)phenyl)urea] is higher in inhibition at 100 µM: < 20% for the first, 20 to 50% for the second.

First: CCCCCCCCCCCC(=O)N1CCC(C(=O)Nc2ccc(F)cc2)C1 (stereo not drawn) [Example 152, 1-dodecanoyl-N-(4-fluorophenyl)pyrrolidine-3-carboxamide]
Second: CCCCCCCCCCCC(=O)N(C)c1ccc(F)cc1F [Example 22, N-(2,4-difluorophenyl)-N-methyldodecanamide]
The inhibition at 100 µM of the first is lower: 20 to 50% for the first, > 50% for the second.

`CCCCCCCCCCNC(=O)N(C)c1ccccc1C(F)(F)F` [Example 58, 3-decyl-1-methyl-1-(2-(trifluoromethyl)phenyl)urea] and `CCCCCCCCNC(=O)Nc1cc(C(C)(C)C)nn1C` [Example 46, 1-(3-tert-butyl-1-methylpyrazol-5-yl)-3-octylurea] cannot be ordered by inhibition at 100 µM: > 50% for the first, > 50% for the second.

`CCCCCCCCCCCCCCCCCCNC(=O)Nc1cc(C(C)(C)C)nn1C` [Example 94, 1-(3-tert-butyl-1-methylpyrazol-5-yl)-3-octadecylurea] and `CCCCCCCCCC(=O)NC(=O)Nc1cc(C)ns1` [Example 101, N-(3-methylisothiazol-5-ylcarbamoyl)decanamide] fall in the same range of inhibition at 100 µM: 20 to 50% for the first, 20 to 50% for the second.

In the case of `CCN(CC)C(=O)C1CCCN(C(=O)CCCCCCCCCCCSC)C1` (stereo not drawn) [Example 141, N,N-diethyl-1-(12-(methylthio)dodecanoyl)piperidine-3-carboxamide], the inhibition at 100 µM is reported as > 50%.
